Experimental data reported in patent publication US6914056B1, “Pharmaceutical compositions comprising cyclic glycerophosphates and analogs thereof for promoting neural cell differentiation” (Yeda Research and Development Co., Ltd., priority 1999, dated 2005).
“Also recorded” adds a separate entry of the source.

B1: NGF: nerve growth factor, a growth factor that differentiates PC12 cells to neuronal cells (protein, UniProt P01139 122-241, looked up)
Beta-nerve growth factor: SSTHPVFHMGEFSVCDSVSVWVGDKTTATDIKGKEVTVLAEVNINNSVFRQYFFETKCRASNPVESGCRGIDSKHWNSYCTTTHTFVKALTTDEKQAAWRFIRIDTACVCVLSRKATRRG

How the values were obtained:
Assay type in all cases: cell-based, rat
[1] = test system: PC12 cells; assay: Neural outgrowth of PC12 cells after consecutive seven-day incubation (Example 15, FIG. 3); conditions: PC12 cells incubated for consecutive 7 days; CGs at 0.5 μM
Experimental: (§1) The immortal PC12 cell line is one of the most investigated systems in neuronal differentiation. In the presence of nerve growth factor these cells differentiate to neuronal cells. PC12 cells originated from rat pheochromocytoma were grown as monolayers in Eagle's medium (EM) supplemented with 10% fetal calf serum, 50 μg/ml gentamicin and 5 mM glutamine, in a humidified incubator buffered with 5% CO2, at 37° C. The culture medium is changed every four days and the cells are passaged every eight days and performed confluent monolayers (1.5×10^6 in a 10 cm plate or 10^5 cells per well in 24 wells plate). PC12 cells are originally round cells which, following several days in the presence of nerve growth factor (NGF) process nerves. Upon withdrawal of the NGF, the nerves retract and a process of apoptosis is initiated in the cells.
The cells were incubated with the various factors for a consecutive period of seven days. Neural outgrowth was monitored and microscopic photographs were taken following the seven day incubation with the above factors.

[2] = test system: PC12 cells; assay: Neuronal outgrowth of PC12 cells, factors in growth medium for 48 hours (Example 12, FIG. 1); conditions: 48 hours in growth medium with factor, 1,3 cGP 1 μM, NGF 50 ng/ml, α glycerophosphate as control
Experimental: as §1
PC12 cells were grown in culture as explained above, the cells were divided into three groups and different factors were added to the growth medium of each group for 48 hours as follows: • Group A—α glycerophosphate. • Group B—nerve growth factor (NGF) at a concentration of 50 ng/ml. • Group C —1,3 cGP at a concentration of 1 μM.
The rate of neuronal growth in each of the above cultures was monitored and documented by microscopic photographs.

[3] = test system: PC12 cells; assay: Neural outgrowth of PC12 cells after three-hour pulse and wash, photographed on day 7 (Example 14, FIG. 2); conditions: for promotion of neuronal outgrowth (summary statement): PC12 adrenal tumorigenic cells in culture, after a short incubation period; for neural outgrowth (microscopic photographs): PC12 cells pulsed for three hours, washed, grown in growth medium without factor, day 7 after treatment
Experimental: as §1
Cells were grown as described above and divided into groups which were each grown with one of the following:
The above factors were added to the cells for a period of three hours after which they were washed away from the cells. […] The neural outgrowth of the cells was monitored and microscopic photographs were taken on day seven after treatment with the above factors.

[4] = test system: PC12 cells; assay: Nerve rescue of NGF-differentiated PC12 cells after NGF withdrawal, 14-day culture (Example 19, FIG. 4)
Experimental: as §1
To study nerve rescue by 1,3 cPP, PC12 cells were incubated in tissue culture medium for a period of 14 days. Within this period, the cells were either grown in the presence of nerve growth factor (NGF) for different periods of times or were grown in the presence of 1,3, cPP for various periods of time. Neuronal differentiation and spread was examined in the various cells.

Row | Molecule | neural outgrowth (microscopic photographs) [1] | neural outgrowth (microscopic photographs) [2] | promotion of neuronal outgrowth (summary statement) [3] | neural outgrowth (microscopic photographs) [3] | neural outgrowth (microscopic photographs) ([2]; listed as 1,3 GP) | rescue of the neuronal network from retraction ([4]; PC12 cells 7 days with NGF 50 ng/ml, then 7 days with 2 μM, 4 μM or 6 μM 1,3 cPP) | nerve retraction after NGF withdrawal ([4]; PC12 cells 7 days with NGF 50 ng/ml, then 7 days without NGF) | neuronal differentiation ([4]; PC12 cells grown with NGF 50 ng/ml for full 14 days)
1 | O=P(O)(O)OCC(O)CO (stereo in doubt) [αGP, L-α-glycerophosphate, reference compound] | No neural outgrowth was observed | did not promote neural outgrowth | – | – | – | – | – | –
2 | O=P1(O)OCC(CO)O1 (centres unmarked) [1,2 cGP, 1,2 cyclic glycerophosphate] | neural outgrowth is observed to different extents | – | capable of promoting neuronal outgrowth | Neural outgrowth is seen | – | – | – | –
3 | O=P1(O)OCC(O)CO1 (centres unmarked) [1,3 cGP, 1,3 cyclic glycerophosphate] | neural outgrowth is observed to different extents | neural outgrowth was clearly seen | capable of promoting neuronal outgrowth | Neural outgrowth is seen | Neuronal outgrowth is clearly seen | – | – | –
4 | O=P1(O)OCCCO1 [1,3 cPP, 1,3 cyclic propanediol phosphate] | neural outgrowth is observed to different extents | – | – | Neural outgrowth is seen | – | partial to full rescue of the neuronal network | – | –
5 | O=P(O)(O)OC(CO)CO [βGP, β-Glycerophosphate, reference compound] | No neural outgrowth was observed | – | – | – | – | – | – | –
6 | phenyl 1,3 cyclic glycerophosphate [phenyl-1,3 cGP] | neural outgrowth is observed to different extents | – | – | Neural outgrowth is seen | – | – | – | –
7 | phenyl 1,3 cyclic propanediol phosphate [phenyl-1,3 cPP] | neural outgrowth is observed to different extents | – | – | Neural outgrowth is seen | – | – | – | –
8 | B1 | neural outgrowth was seen; also recorded: extensive neural outgrowth is seen | neural outgrowth was clearly seen; also recorded: Neuronal outgrowth is clearly seen | – | did not promote any nerve generation | – | – | complete nerve retraction was observed | full neuronal differentiation
